Among the data in patent US8802064B2, “Inhibitors of fatty acid amide hydrolase” (Infinity Pharmaceuticals, Inc., priority 2009, dated 2014) are Ki values, retold here.

The test concerns the target T1, human FAAH (Homo sapiens, UniProt O00519).
T1 construct: host or cells: COS-7 cells, transient transfection (FuGENE 6); 13,000 g membrane fraction solubilised in 1% Triton X-100
T1 sequence (O00519 1-579): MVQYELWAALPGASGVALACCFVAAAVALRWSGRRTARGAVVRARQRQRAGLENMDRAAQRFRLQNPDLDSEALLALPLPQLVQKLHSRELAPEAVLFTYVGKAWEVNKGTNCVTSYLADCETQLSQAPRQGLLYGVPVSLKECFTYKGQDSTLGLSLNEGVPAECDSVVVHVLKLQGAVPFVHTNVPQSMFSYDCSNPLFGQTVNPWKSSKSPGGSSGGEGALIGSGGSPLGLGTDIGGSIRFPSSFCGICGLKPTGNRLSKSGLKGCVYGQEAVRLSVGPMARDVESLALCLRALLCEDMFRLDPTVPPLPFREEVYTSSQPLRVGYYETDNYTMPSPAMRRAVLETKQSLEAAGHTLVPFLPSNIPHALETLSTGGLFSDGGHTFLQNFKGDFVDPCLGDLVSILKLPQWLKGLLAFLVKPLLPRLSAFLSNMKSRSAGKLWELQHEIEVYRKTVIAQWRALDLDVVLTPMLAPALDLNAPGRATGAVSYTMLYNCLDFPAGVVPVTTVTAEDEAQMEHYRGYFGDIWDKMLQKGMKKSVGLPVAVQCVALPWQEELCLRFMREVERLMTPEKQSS
Description: Human FAAH inhibition assay (fluorescence, AMC arachidonoyl amide hydrolysis). As to conditions: human FAAH from transfected COS-7 cells; 20 μM AMC arachidonoyl amide; 30 min preincubation, 4 h reaction at room temperature. It is filed as biochemical. The protocol:
Exemplary compounds are set forth in the Examples provided below. Compounds were assayed as inhibitors of human FAAH using the method described in detail in Example 16.
The following assays were used to determine the inhibition of FAAH: (1) a fluorescence-based assay (Manjunath et al., Analytical Biochemistry (2005) 343:143-151); and (2) a microsome-based fluorescent assay (Wang et al., Biomolecular Screening (2006) 1-9).
COS-7 cells were split the day before, 1:5 into 150 mm×25 mm cell culture dishes (Corning Inc., Cat. No. 430599). Transient transfection took place at 30-40% confluency according to FuGENE 6 Transfection Reagent (Roche, Cat. No. 11814 443 001).
The FuGENE transfection 6 reagent (45 uL) was added to 1410 μL of media (DMEM, serum free without pen/strep) in a 15 mL conical tube and incubated at room temp for 5 minutes, followed by the addition of FAAH plasmid DNA (15 μg) (OriGene Cat. No. TC119221, Genbank Accession No. NM_001441.1, 0.67 ug/uL) and a further incubation of 15 minutes at room temperature. The resulting solution was added into one dish of 30-40% confluent COS-7 cells in a dropwise manner. The COS-7 cell dish was subsequently incubated for 48 hours. The cells were then harvested.
Media was aspirated from the dishes and the cells rinsed with 10 mL PBS. The PBS was removed and 3 mL of PBS added to the dish. The dish was scraped to resuspend the cells, and the subsequent cell suspension collected into a 15 mL conical tube. The cells were pelleted by centrifugation at 1200 rpm for 5 minutes in a bench top centrifuge. PBS was removed and the cell pellet snap frozen in liquid nitrogen and stored at 80° C.
COS-7 Cells FAAH purification: • (1) Fractionation: Frozen cell pellets from transient transfections were thawed on ice and resuspended in 12.5 mM Hepes pH 8.0, 100 mM NaCl, 1 mM EDTA (10 mL/0.2 g cell pellet). The pellets were dounce homogenized and then sonicated to produce cell extract. The cell extract was subsequently centrifuged at 1000 g to remove cellular debris. The pellet was discarded and the supernatant centrifuged at 13,000 g for 20 minutes. The pellet contained membrane bound FAAH. The supernatant was discarded and the pellet resolubilized. • (2) Resolubilization: The fraction of interest, (13,000 g, membrane fraction) was resuspended in 2.3 mL resuspension buffer (20 mM Hepes pH 7.8, 10% v/v Glycerol, 1 mM EDTA, 1% Triton X-100) and the sample incubated on ice for 1 hour and then centrifuged to remove any particulate matter. The supernatant containing solubilized human FAAH was aliquoted and snap frozen in liquid nitrogen and stored at 80° C. until use. • (3) Characterization: Protein Concentration determined by Bradford assay. • SDS gel and Western blot to confirm presence of FAAH • FAAH activity assay • Km determination—96-well assay • Linear dependence—96-well assay • Standard compound Ki determination—384-well assay
Rat FAAH biochemical assays were carried out in a 96 well flat bottom black nontreated polystyrene plates (Corning Costar Catalogue #3915). FAAH reaction buffer: 50 mM Hepes (pH 7.5), 1 mM EDTA, 0.2% Triton X-100. FAAH substrate—AMC Arachidonoyl Amide (Cayman Chemicals Company, Catalog #10005098). The reaction was read in an Envision microtiter plate reader [Excitation filter 355 nm (40 nm bandpass); Emmision filter 460 nm (25 nm bandpass)]. The raw fluorescence was plotted on the y axis and the inhibitor concentration on the x axis to give a dose response inhibition curve. The data was fitted to a single site competitive inhibition equation, fixing the Km for the rat and human enzyme to 12 μM and 9 μM respectively.
The principle of this assay was the hydrolysis of AMC-Arichodonoyl, a fluorescent analogue of Anandamide, which results in the formation of Arachidonic acid and AMC. The formation of AMC results in an increase in fluorescence (see, for example, Manjunath et al., Analytical Biochemistry (2005) 343:143-151; and Wang et al., Biomolecular Screening (2006) 1-9). […]
As for `Cn1ccc2cc(B(O)O)ccc2c1=O` [Compound 1], the Ki (as a rule, a measure of affinity in units of concentration, obtained from inhibition or displacement) lay in the range of 10 to 100 nM.

Consider `O=c1c2ccc(B(O)O)cc2ccn1Cc1ccccc1` [Compound 2], for which the Ki is 10 to 100 nM. To `O=c1c2ccc(B(O)O)cc2ccn1CCc1ccccc1` [Compound 3] belongs not above 10 nM; to `CC(c1ccccc1)n1ccc2cc(B(O)O)ccc2c1=O` (stereo not drawn) [Compound 4], 10 to 100 nM. To `CC(Cn1ccc2cc(B(O)O)ccc2c1=O)c1ccccc1` (stereo not drawn) [Compound 5] belongs 10 to 100 nM; to `CC(Cc1ccccc1)n1ccc2cc(B(O)O)ccc2c1=O` (stereo not drawn) [Compound 6], 10 to 100 nM. Compound `CCCCCCn1ccc2cc(B(O)O)ccc2c1=O` [Compound 7] displayed a Ki not above 10 nM.

Compound `Cc1nc2cc(B(O)O)ccc2c(=O)n1C` [Compound 8] yielded a Ki of more than 1000 nM. To `Cc1nc2cc(B(O)O)ccc2c(=O)n1CCc1ccccc1` [Compound 9] belongs 10 to 100 nM; to `O=c1c2ccc(B(O)O)cc2ncn1CCc1ccccc1` [Compound 10], not above 10 nM; to `O=c1c2cc(B(O)O)ccc2ccn1CCc1ccccc1` [Compound 11], 10 to 100 nM.

Consider `O=C1c2ccc(B(O)O)cc2CCN1CCc1ccccc1` [Compound 12], for which the Ki was not above 10 nM. The value for `O=c1c2ccc(B(O)O)cc2cnn1CCc1ccccc1` [Compound 13] was not above 10 nM; that for `O=c1[nH]c(CCc2ccccc2)nc2ccc(B(O)O)cc12` [Compound 14] was 100 to 1000 nM.

In the case of `O=C1c2ccc(B(O)O)cc2CN1CCc1ccccc1` [Compound 15], the Ki was not above 10 nM.
